According to patent US8691511B2, “Hydroxylated 1,2,4-oxadiazole benzoic acid compounds, compositions thereof and their use in bioassays” (PTC Therapeutics, Inc., priority 2006, dated 2014):

Assays:
[1] = test system: luciferase reporter construct containing a UGA premature termination codon; assay: cell-based luciferase reporter assay (nonsense suppression); settings: 293T Human Embryonic Kidney cells stably transfected with UGA luciferase reporter; internal standard
Excerpt: (§1) Two assays were developed for use in high throughput screens to identify small molecules that promote nonsense suppression. Each assay utilized luciferase because it is a functional reporter gene assay (light is only produced if the protein is functional) and it is extremely sensitive (Light intensity is proportional to luciferase concentration in the nM range). The first assay is a cell-based luciferase reporter assay and the second is a biochemical assay consisting of rabbit reticulocyte lysate and a nonsense-containing luciferase reporter mRNA. In the cell-based assay, a luciferase reporter construct containing a UGA premature termination codon was stably transfected in 293T Human Embryonic Kidney cells. In the biochemical assay, mRNA containing a UGA premature termination codon was used as a reporter in an in vitro translation reaction using rabbit reticulocyte lysate supplemented with tRNA, hemin, creatine kinase, amino acids, KOAc, Mg(OAc)2, and creatine phosphate. […] Synthetic mRNA was prepared in vitro using the T7 promoter and the MegaScript in vitro transcription kit (Ambion).

[2] = test system: mRNA containing a UGA premature termination codon; assay: biochemical in vitro translation assay, rabbit reticulocyte lysate with nonsense-containing luciferase reporter mRNA; settings: in vitro translation reaction using rabbit reticulocyte lysate, internal standard
Excerpt: as §1

## CC(C)c1ccc(N2CC(=O)N(c3cccc(C(=O)O)c3)C2=O)cc1 [3-[3-(4-Isopropyl-phenyl)-2,5-dioxo-imidazolidin-1-yl]-benzoic acid]
[1]
  luciferase activity: increased luciferase activity
[2]
  luciferase activity: increased luciferase activity
